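Assay format: 96-well plates, 48-hour exposure. GI50: concentration for 50% inhibition of growth. TGI: concentration producing complete growth inhibition.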

Among the test systems are SF-295 CNS; MCF7 breast; HOP-62 NSCLC; M14 melanoma; NCI-H460 lung; 786-0 renal; SN12C renal.
What all share (assay): inhibition of tumour cell growth, NCI panel, 48 h

Consider `CCC(CC)c1nc(Nc2ccc(C(=O)OC)cc2)c2ccccc2n1`, for which the GI50 is greater than 18.8 µM with SF-295 CNS; 24.2 µM with MCF7 breast; 10.4 µM with HOP-62 NSCLC; 10 µM with M14 melanoma; 19.9 µM in the assay with NCI-H460 lung; 10.9 µM in the assay on 786-0 renal. In addition, the GI50 in the assay on SN12C renal is 7.83 µM. Further, the TGI in the assay with SF-295 CNS is greater than 26 µM; in the assay on MCF7 breast, greater than 50 µM; in the assay with HOP-62 NSCLC, 21.6 µM; in the assay on M14 melanoma it was 21.6 µM; with NCI-H460 lung it was greater than 50 µM; with 786-0 renal it was 26.5 µM. In the assay on SN12C renal, this compound yielded a TGI of 16.3 µM.
Take `COc1ccc(/C=C(/C(=O)N2CCN(c3ccccc3)CC2)c2cc(OC)c(OC)c(OC)c2)cc1N`: the GI50 in the assay with SF-295 CNS was 0.342 µM; with MCF7 breast, 0.326 µM; in the assay with HOP-62 NSCLC, 0.429 µM; in the assay on M14 melanoma, 0.254 µM; in the assay with NCI-H460 lung, 0.364 µM; in the assay on 786-0 renal, 0.766 µM. Further, the GI50 in the assay on SN12C renal is 0.643 µM. In addition, the TGI was greater than 100 µM in the assay on SF-295 CNS; greater than 100 µM in the assay on MCF7 breast; greater than 100 µM in the assay with HOP-62 NSCLC; 3.58 µM in the assay on M14 melanoma; greater than 100 µM in the assay with NCI-H460 lung; greater than 100 µM with 786-0 renal. Further, the TGI with SN12C renal is greater than 100 µM.
As for `CCOC(=O)c1ccccc1OC(=O)NNc1ccccc1`, the GI50 with SF-295 CNS was 0.333 µM; with MCF7 breast, 8.14 µM; in the assay with HOP-62 NSCLC, greater than 84.2 µM; in the assay on NCI-H460 lung it was 0.442 µM; in the assay with 786-0 renal it was 1.18 µM; with SN12C renal, 34.9 µM. The TGI is greater than 37.4 µM in the assay with SF-295 CNS; greater than 100 µM with MCF7 breast; greater than 100 µM in the assay with HOP-62 NSCLC; greater than 100 µM in the assay on M14 melanoma; greater than 100 µM in the assay on NCI-H460 lung; greater than 100 µM in the assay with 786-0 renal. The TGI in the assay on SN12C renal was greater than 100 µM.
Take `CCCCCCCC/C=C/CCCCCCCC1=NC(C)(C)CN1CC(C)O` (configuration not stated): the GI50 with SF-295 CNS was 1.82 µM; in the assay on MCF7 breast, 1.85 µM; with HOP-62 NSCLC, 1.83 µM; with M14 melanoma, 1.79 µM; in the assay with NCI-H460 lung, 1.94 µM; in the assay on 786-0 renal it was 1.71 µM. Also, the GI50 with SN12C renal is 3.3 µM. The TGI in the assay with SF-295 CNS came out at 3.5 µM; in the assay on MCF7 breast, 3.62 µM; with HOP-62 NSCLC it was 3.39 µM; in the assay with M14 melanoma, 3.35 µM; with NCI-H460 lung, 3.64 µM; in the assay with 786-0 renal it was 3.16 µM. In addition, the TGI in the assay with SN12C renal came out at 12.3 µM.
Turning to `COc1cc(/C=C2\C[C@H]3[C@@H]4CC=C5C[C@@H](O)CC[C@]5(C)[C@H]4CC[C@]3(C)[C@H]2O)ccc1OCCN1CCCC1`, the GI50 in the assay on SF-295 CNS is 13.6 µM; in the assay with MCF7 breast it was 16.4 µM; with HOP-62 NSCLC, 9.67 µM; in the assay on M14 melanoma, 8.16 µM; in the assay with NCI-H460 lung, 13.5 µM; with 786-0 renal it was 6.16 µM. In addition, the GI50 with SN12C renal was 8.48 µM. Further, the TGI with SF-295 CNS was 37 µM; in the assay on MCF7 breast, greater than 50 µM; in the assay with HOP-62 NSCLC, 20.8 µM; in the assay with M14 melanoma, 18.3 µM; with NCI-H460 lung, 36.2 µM; in the assay on 786-0 renal it was 16 µM. Also, the TGI with SN12C renal was determined as 17.9 µM.
In the case of `CCN(CC)CCNc1ccc(C)c2sc3cc(Cl)ccc3c(=O)c12`, the GI50 with SF-295 CNS is 1.67 µM; in the assay with MCF7 breast, 1.55 µM; in the assay on HOP-62 NSCLC, 1.44 µM; in the assay with M14 melanoma it was 1.8 µM; in the assay with NCI-H460 lung, 1.87 µM; with 786-0 renal it was 1.66 µM. The GI50 in the assay on SN12C renal was 1.68 µM. Further, the TGI is 3.16 µM with SF-295 CNS; 3.2 µM with MCF7 breast; 2.9 µM with HOP-62 NSCLC; 3.4 µM with M14 melanoma; 3.54 µM with NCI-H460 lung; 3.1 µM with 786-0 renal. Moreover, the TGI with SN12C renal was 3.44 µM.
As for `COc1ccc(C(=O)Nc2ncc(Cc3cccc(Cl)c3)s2)cc1OC`, the GI50 with SF-295 CNS was 0.0607 µM; with MCF7 breast it was 0.36 µM; in the assay on HOP-62 NSCLC, 0.546 µM; in the assay on M14 melanoma, 0.0371 µM; in the assay with NCI-H460 lung, 0.0611 µM; in the assay on 786-0 renal it was 1.33 µM. For the same compound, the GI50 in the assay on SN12C renal was 1.33 µM. Also, the TGI was 3.64 µM in the assay with SF-295 CNS; greater than 100 µM in the assay with MCF7 breast; greater than 100 µM in the assay on HOP-62 NSCLC; greater than 100 µM with M14 melanoma; greater than 100 µM in the assay with NCI-H460 lung; greater than 100 µM with 786-0 renal. Further, the TGI with SN12C renal is greater than 100 µM.
With `CC1(C)N=C(N)N=C(N)N1c1ccc(CCCCc2ccccc2)c(Cl)c1`, the GI50 with SF-295 CNS was 0.0457 µM; in the assay on MCF7 breast, 0.0256 µM; in the assay on HOP-62 NSCLC, 0.0672 µM; in the assay with M14 melanoma, 0.0598 µM; in the assay on NCI-H460 lung, less than 0.0129 µM; with 786-0 renal, 0.055 µM. Moreover, in the assay on SN12C renal, the GI50 is 0.0521 µM. In addition, the TGI was 14.6 µM with SF-295 CNS; 2.12 µM in the assay with MCF7 breast; 5.46 µM in the assay on HOP-62 NSCLC; 8.77 µM in the assay with M14 melanoma; 4.04 µM in the assay on NCI-H460 lung; 13.1 µM with 786-0 renal. In addition, the TGI with SN12C renal came to 7.02 µM.
`O=C(/C=C/c1ccco1)c1cc(F)c(Cl)cc1Cl`: the GI50 with SF-295 CNS is 24.3 µM; in the assay on MCF7 breast, 14.1 µM; in the assay with HOP-62 NSCLC, 19.2 µM; in the assay with M14 melanoma, 19.5 µM; in the assay on NCI-H460 lung, 24.2 µM; with 786-0 renal, 22.3 µM. Moreover, the GI50 in the assay with SN12C renal is 22.9 µM. Moreover, the TGI was found to be 65.9 µM in the assay with SF-295 CNS; 63 µM in the assay on MCF7 breast; 39.1 µM in the assay with HOP-62 NSCLC; 38.4 µM in the assay on M14 melanoma; 72.4 µM in the assay with NCI-H460 lung; 55.4 µM in the assay on 786-0 renal. In the assay on SN12C renal, this compound registered a TGI of 57.5 µM.
For `COc1ccc2sc3cccc(NCCN(C)C)c3c(=O)c2c1`, the GI50 with SF-295 CNS was 4.61 µM; with MCF7 breast, 1.76 µM; in the assay on HOP-62 NSCLC it was 3.57 µM; with M14 melanoma it was 2 µM; in the assay with NCI-H460 lung, 2.57 µM; in the assay on 786-0 renal, 3.14 µM. For the same compound, the GI50 in the assay on SN12C renal was 3.36 µM. In addition, the TGI in the assay with SF-295 CNS amounted to 17.5 µM; with MCF7 breast, 3.9 µM; with HOP-62 NSCLC it was 10.7 µM; with M14 melanoma it was 4.1 µM; in the assay with NCI-H460 lung, 6.22 µM; with 786-0 renal, 14.5 µM. In the assay on SN12C renal, the TGI amounted to 13.4 µM.
Regarding `C=C(C)[C@@H]1CC[C@]2(COCCC#N)CC[C@]3(C)[C@H](CC[C@@H]4[C@@](C)(CCCNCCC#N)[C@H](C(=C)C)CC[C@]43C)[C@@H]12`, the GI50 in the assay on SF-295 CNS is greater than 50 µM; in the assay with MCF7 breast it was 9.9 µM; in the assay with HOP-62 NSCLC, 49.7 µM; in the assay with M14 melanoma, 14.7 µM; in the assay on NCI-H460 lung, 13.2 µM; in the assay on 786-0 renal it was 10.6 µM. Moreover, the GI50 in the assay with SN12C renal is 10 µM. Besides, the TGI with SF-295 CNS is greater than 50 µM; in the assay on MCF7 breast, 48.5 µM; in the assay on HOP-62 NSCLC, greater than 50 µM; in the assay with M14 melanoma it was greater than 50 µM; with NCI-H460 lung it was greater than 50 µM; in the assay with 786-0 renal it was 30.1 µM. Further, in the assay on SN12C renal, the TGI was found to be 29.2 µM.
Turning to `CO/C=C/C(=O)c1cc2cnc3c(=N)cc(NC(=O)C(C)C)c([nH]1)c23`, the GI50 with SF-295 CNS was 0.105 µM; in the assay with MCF7 breast it was 0.0182 µM; in the assay with HOP-62 NSCLC it was 0.0844 µM; in the assay on M14 melanoma, 0.0703 µM; in the assay with NCI-H460 lung, 0.323 µM; in the assay with 786-0 renal, 0.0981 µM. Also, the GI50 in the assay with SN12C renal was 0.0246 µM. Also, the TGI in the assay with SF-295 CNS was 0.771 µM; in the assay on MCF7 breast, 1.25 µM; in the assay on HOP-62 NSCLC, 1.04 µM; with M14 melanoma, 0.529 µM; with NCI-H460 lung it was 11.4 µM; in the assay on 786-0 renal, 0.695 µM. In the assay on SN12C renal, this compound registered a TGI of 1.61 µM.
Take `COc1c(O)c(OC)c2oc(-c3ccc(O)c(O)c3)c(OC)c(=O)c2c1O`: the TGI in the assay on SF-295 CNS was greater than 100 µM; in the assay on MCF7 breast, 34 µM; in the assay on HOP-62 NSCLC, 43.7 µM; in the assay on M14 melanoma, 50.7 µM; in the assay on NCI-H460 lung, greater than 100 µM; in the assay on 786-0 renal, 50.9 µM. Further, the TGI in the assay on SN12C renal was greater than 100 µM.
Consider `Cc1ccc(NC(=O)c2ccc(CN3CCN(C)CC3)cc2)cc1Nc1nccc(-c2cccnc2)n1`, for which the GI50 was 17.8 µM in the assay on SF-295 CNS; 17.8 µM in the assay on MCF7 breast; 21.9 µM in the assay with HOP-62 NSCLC; 19.1 µM with M14 melanoma; 16.8 µM in the assay on NCI-H460 lung; 16.1 µM with 786-0 renal. In the assay on SN12C renal, the GI50 is 30.7 µM. The TGI in the assay on SF-295 CNS turned out to be 38.3 µM; with MCF7 breast, 44.8 µM; in the assay on HOP-62 NSCLC, 47 µM; with M14 melanoma it was 35.7 µM; with NCI-H460 lung it was 37.1 µM; with 786-0 renal it was 33.6 µM. This compound also came in with a TGI in the assay on SN12C renal greater than 100 µM.
As for `CCOC(=O)c1ccc(Nc2sc(C(=O)c3ccc(Br)cc3)c(N)c2C#N)cc1`, the GI50 in the assay on SF-295 CNS is 0.478 µM; in the assay on MCF7 breast it was 0.655 µM; with HOP-62 NSCLC, 1.56 µM; with M14 melanoma, 1.27 µM; in the assay with NCI-H460 lung, 0.924 µM; in the assay with 786-0 renal, 1.99 µM. Besides, the GI50 in the assay on SN12C renal is 4.12 µM. For the same compound, the TGI with SF-295 CNS, with MCF7 breast, in the assay with HOP-62 NSCLC, in the assay with M14 melanoma, in the assay on NCI-H460 lung and with 786-0 renal was greater than 100 µM throughout. Besides, in the assay with SN12C renal, the TGI was greater than 100 µM.

For the origin of these results see PubChem BioAssay (NCI).
